Measured values published in ChEMBL document CHEMBL1914333, “Synthesis and evaluation of compounds that induce readthrough of premature termination codons” (Bioorg Med Chem Lett, 2011).
Active and inactive are the calls of the source. The calls are words filed in the database; no cut-off is given here.

Assays:
[1] = target: T1, 80S Ribosome (Homo sapiens) (UniProt P08865+P42677+P62753+P15880+P23396+P61247+P62701+P22090+P46782+P62081+P62241+P46781+P46783+P62280+P25398+P62277+P62263+P62841+P62244+P62249+P08708+P62269+P39019+P60866+P63220+P62266+P62847+P62851+P62854+P62979+P62857+P62273+P62861+P39023+P36578+P46777+Q02878+P18124+P62424+P62917+P32969+P27635+P62906+P62913+P30050+P26373+P40429+P50914+P61313+P18621+Q07020+Q02543+P84098+P46778+P35268+P62829+P62750+P83731+P61254+P61353+P46776+P46779+P47914+P62888+P62899+P62910+P49207+P42766+P18077+Q9Y3U8+P83881+P61927+P61513+P63173+P62891+P62945+P05388+P05386); assay: Induction of ribosome to readthrough in human A-T lymphoblastoid cells assessed as ATM ser1981 autophosphorylation at 30 uM after 4 days by PTT-ELISA assay; assay type: subcellular
[2] = target: T1, 80S Ribosome (Homo sapiens); assay: Induction of ribosome to readthrough in human A-T lymphoblastoid cells assessed as irradiation-induced ATM Ser1981 nuclear foci formation at 30 uM after 4 days by PTT-ELISA; assay type: subcellular

SMILES	Flu intensity [1]	Activity [2]
O=C1NC(=S)S/C1=C\c1c[nH]c2ccccc12	inactive	
O=C1NC(=S)S/C1=C\c1ccc(-c2ccccn2)o1	inactive	
O=C1NC(=S)S/C1=C\c1cc2ccccc2[nH]1	inactive	
Cc1cn(Cc2ccc(-c3ccccc3)o2)c(=O)[nH]c1=O	3.8	22.8%
COc1ccccc1-c1ccc(/C=C2\SC(=S)NC2=O)o1	inactive	
O=C1NC(=S)S/C1=C\c1ccc(-c2cccc(Cl)c2)o1	2.86	
O=C1NC(=S)S/C1=C\c1ccc(-c2cccc(F)c2)o1	3.44	
O=C1NC(=S)S/C1=C\c1ccc(-c2ccccc2Cl)o1	3.55	
O=C1NC(=S)S/C1=C\c1ccc(-c2ccccc2[N+](=O)[O-])o1	inactive	
CN1C(=N)S/C(=C\c2ccc(-c3ccccc3[N+](=O)[O-])o2)C1=O	inactive	
O=c1[nH]c(=O)n(Cc2ccc(-c3ccccc3[N+](=O)[O-])o2)cc1F	2.08	14.5%
O=C1NC(=S)S/C1=C\c1cc2ccccc2o1	3.5	
Nc1nc(=O)n(Cc2ccc(-c3ccccc3[N+](=O)[O-])o2)cc1F	inactive	inactive
N=C1NC(=O)/C(=C/c2ccc(-c3ccccn3)o2)S1	inactive	
COc1cccc(-c2ccc(/C=C3\SC(=S)NC3=O)o2)c1	2.66	
Cc1cn(Cc2ccc(-c3ccccc3[N+](=O)[O-])o2)c(=O)[nH]c1=O	inactive	inactive
N=C1NC(=O)/C(=C/c2cn(Cc3ccc(-c4ccccc4[N+](=O)[O-])o3)c(=O)[nH]c2=O)S1	2.42	18%
Cc1cn(Cc2ccc(-c3ccccc3F)o2)c(=O)[nH]c1=O	6.16	9.6%
O=c1ccn(Cc2ccc(-c3ccccc3[N+](=O)[O-])o2)c(=O)[nH]1	4.94	10.7%
N=C1NC(=O)/C(=C/c2c[nH]c(=O)[nH]c2=O)S1	5.32	17%
N=C1NC(=O)/C(=C/c2c[nH]c3ccccc23)S1	inactive	

SMILES	Flu intensity [1]	Activity [2]
O=c1ccn(Cc2ccc(-c3ccccc3F)o2)c(=O)[nH]1	5.43	20%
N=C1NC(=O)/C(=C/c2ccc(-c3ccccc3[N+](=O)[O-])o2)S1	3.27	
O=c1ccn(Cc2ccc(-c3ccccc3)o2)c(=O)[nH]1	3.42	9.4%
N=C1NC(=O)/C(=C/c2ccc(-c3ccccc3)o2)S1	inactive	
O=Cc1cn(Cc2ccc(-c3ccccc3[N+](=O)[O-])o2)c(=O)[nH]c1=O	2.24	16%
N=C1NC(=O)/C(=C/c2ccc(-c3cccc(F)c3)o2)S1	inactive	
N=C1NC(=O)/C(=C/c2ccc(-c3ccccc3Cl)o2)S1	inactive	
N=C1NC(=O)/C(=C/c2ccc(-c3cccc(Cl)c3)o2)S1	2.27	
Nc1ccn(Cc2ccc(-c3ccccc3[N+](=O)[O-])o2)c(=O)n1	inactive	inactive
N=C1NC(=O)/C(=C/c2ccc(-c3ccccc3F)o2)S1	inactive	
COc1ccccc1-c1ccc(/C=C2\SC(=N)NC2=O)o1	inactive	
N=C1NC(=O)/C(=C/c2ccco2)S1	inactive	
COc1cccc(-c2ccc(/C=C3\SC(=N)NC3=O)o2)c1	1.9	
N=C1NC(=O)/C(=C/c2ccc(-c3ccccc3)s2)S1	inactive	
N=C1NC(=O)/C(=C/c2cc3ccccc3[nH]2)S1	inactive	
O=C1NC(=S)S/C1=C\c1ccc(-c2ccccc2C(F)(F)F)o1	inactive	
O=c1ccn(Cc2ccc(-c3cccc(Cl)c3)o2)c(=O)[nH]1	5.07	11.3%
N=C1NC(=O)/C(=C/c2ccc(-c3ccccc3C(F)(F)F)o2)S1	inactive	
N=C1NC(=O)/C(=C/c2cc3ccccc3o2)S1	inactive	
O=C1NC(=S)S/C1=C\c1ccc(-c2ccccc2F)o1	2.86	
